The compounds below were run against T1, Sphingosine kinase 2 (Homo sapiens) (UniProt Q9NRA0) (assay: Inhibition of recombinant human SphK2 assessed as decrease in [33P]SIP production at 0.3 uM using sphingosine as substrate in presence of [gamma33P]-ATP by scintillation counting method relative to control).
T1 sequence (whole entry): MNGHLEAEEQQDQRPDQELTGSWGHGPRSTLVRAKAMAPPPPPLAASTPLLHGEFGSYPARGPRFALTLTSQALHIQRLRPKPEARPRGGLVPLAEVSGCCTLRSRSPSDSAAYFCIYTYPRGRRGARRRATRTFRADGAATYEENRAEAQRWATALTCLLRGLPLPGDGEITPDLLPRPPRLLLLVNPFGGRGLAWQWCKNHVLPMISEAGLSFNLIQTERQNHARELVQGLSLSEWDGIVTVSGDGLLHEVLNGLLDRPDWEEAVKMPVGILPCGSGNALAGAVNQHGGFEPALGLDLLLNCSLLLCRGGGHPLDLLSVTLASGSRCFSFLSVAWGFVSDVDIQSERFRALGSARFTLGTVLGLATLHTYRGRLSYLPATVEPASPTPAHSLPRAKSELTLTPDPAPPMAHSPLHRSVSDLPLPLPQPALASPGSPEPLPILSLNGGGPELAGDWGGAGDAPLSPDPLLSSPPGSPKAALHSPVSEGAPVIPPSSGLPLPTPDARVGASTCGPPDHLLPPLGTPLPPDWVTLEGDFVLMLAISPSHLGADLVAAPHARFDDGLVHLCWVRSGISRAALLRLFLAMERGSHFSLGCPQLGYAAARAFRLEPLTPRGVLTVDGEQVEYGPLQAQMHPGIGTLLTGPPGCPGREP

First: CCCCCCCCOc1ccc(CN2CCC[C@@H]2CO)cc1
Second: CCCCCCCCCOc1ccc(CN2CCC[C@@H]2CO)cc1
The inhibition of the first is lower: 1% for the first, 44% for the second.

First: CCCCCCCCCCCc1ccc(CN2CCC[C@@H]2COC(C)=O)cc1
Second: CCCCCCCCCCCc1ccc(CN2CCC[C@@H]2CO)cc1
The inhibition of the first is lower: 2% for the first, 18% for the second.

Going from `OC[C@H]1CCCN1Cc1ccc(Oc2ccc(-c3cccc(C(F)(F)F)c3)cc2)cc1` to `OC[C@H]1CCCN1Cc1ccc(Oc2cccc(-c3ccc(C(F)(F)F)cc3)c2)cc1`, the inhibition falls from 52% to 1%.

Compared with `OC[C@H]1CCCN1Cc1ccc(Oc2ccc(-c3ccc(C(F)(F)F)cc3)cc2)cc1`, `OC[C@H]1CCCN1Cc1ccc(Oc2ccc(-c3ccccc3)cc2)cc1` is higher in inhibition: 0% for the first, 9% for the second.

Going from `CCCCCCCCCCOc1ccc(CN2CCC[C@@H]2CO)cc1` to `CCCCCCCOc1ccc(CN2CCC[C@@H]2CO)cc1`, the inhibition falls from 11% to 0%.

Compared with `CCCCc1ccc(CCc2ccc(CN3CCC[C@@H]3CO)cc2)cc1`, `CCCCCc1ccc(CCc2ccc(CN3CCC[C@@H]3CO)cc2)cc1` is higher in inhibition: 0% for the first, 13% for the second.

Going from `OC[C@H]1CCCN1Cc1ccc(Oc2cccc(-c3ccccc3)c2)cc1` to `OC[C@H]1CCCN1Cc1ccc(Oc2cccc(-c3cccc(C(F)(F)F)c3)c2)cc1`, the inhibition rises from 0% to 11%.

Going from `CCCCCCCCCCCCc1ccc(CN2CCC[C@@H]2CO)cc1` to `CCCCCCCCCCc1ccc(CN2CCC[C@@H]2CO)cc1`, the inhibition rises from 37% to 54%.

Going from `CCCCCCCCCc1ccc(CN2CCC[C@@H]2CO)cc1` to `CCCCCCCCCCCCc1ccc(CN2CCC[C@@H]2CO)c(C)c1`, the inhibition falls from 44% to 38%.

First: CCCCCc1ccc(C#Cc2ccc(CN3CCC[C@@H]3CO)cc2)cc1
Second: CCCCc1ccc(C#Cc2ccc(CN3CCC[C@@H]3CO)cc2)cc1
The inhibition of the first is lower: 19% for the first, 25% for the second.

First: OC[C@H]1CCCN1Cc1ccc(OCc2ccc(C(F)(F)F)cc2)cc1
Second: COc1ccc(CCc2ccc(CN3CCC[C@@H]3CO)cc2)cc1
The inhibition of the first is lower: 0% for the first, 3% for the second.

Compared with `Cc1cc(/C=C/c2ccc(C(C)(C)C)cc2)ccc1CN1CCC[C@@H]1CO`, `OC[C@H]1CCCN1Cc1ccc(/C=C/c2cccc(C(F)(F)F)c2)cc1` is lower in inhibition: 3% for the first, 0% for the second.

First: Cc1ccc(CCc2ccc(CN3CCC[C@@H]3CO)cc2)cc1
Second: CCCc1ccc(CCc2ccc(CN3CCC[C@@H]3CO)cc2)cc1
The inhibition of the first is higher: 26% for the first, 15% for the second.

Going from `CC(C)(C)c1cccc(Oc2ccc(CN3CCC[C@@H]3CO)cc2)c1` to `CC(C)(C)c1ccc(Oc2ccc(CN3CCC[C@@H]3CO)cc2)cc1`, the inhibition rises from 11% to 22%.

Going from `OC[C@H]1CCCN1Cc1ccc(Oc2ccccc2)cc1` to `CCCc1ccc(C#Cc2ccc(CN3CCC[C@@H]3CO)cc2)cc1`, the inhibition falls from 13% to 0%.

What follows are compounds tested against T2, Sphingosine kinase 2 (Homo sapiens, UniProt Q9NRA0).
T2 sequence (Q9NRA0 whole entry): T1 sequence (whole entry)
Description: Inhibition of recombinant human SphK2 assessed as decrease in [33P]SIP production using sphingosine as substrate in presence of [gamma33P]-ATP by scintillation counting method

Going from `CCCCCCCCCCCCc1ccc(CN2CCC[C@@H]2CO)cc1` to `CCCCCCCCOc1ccc(COc2ccc(-c3noc([C@@H]4CCCN4C(=N)N)n3)cc2C(F)(F)F)cc1`, the Ki falls from 951 nM to 400 nM (2.4-fold).

Source: ChEMBL document CHEMBL4680333, “Lipophilic tail modifications of 2-(hydroxymethyl)pyrrolidine scaffold reveal dual sphingosine kinase 1 and 2 inhibitors” (Bioorg Med Chem, 2021)
